Measured values reported in patent publication US20240261443A1, “COMPOUNDS AND COMPOSITIONS USEFUL AS RADIOTRACERS FOR IMAGING OF REACTIVE OXIDATIVE SPECIES” (Wake Forest University Health Sciences, priority 2019, published 2024).

Experiments:
PC3 cell line = test: MTT cytotoxicity IC50 assay, PC3; type: cell-based, human; conditions: Homo sapiens
Method: The cells were seeded at density 5×10^3 cells/well. After 24 h pre-incubation period, cells were treated with 0.01 mM to 2.0 mM of freshly prepared KS1 and KS2 along with ascorbate (n=3) for 48 h. 0.2% of DMSO served as vehicle control. After 48 h, the solutions were removed from all plates and MTT assays performed following the published protocols. IC50 values are presented as mean±SD from at least three independent experiments.
There is growing evidence for a therapeutic role of ascorbate against several cancers (Creagan et al., Failure of High-Dose Vitamin C (Ascorbic Acid) Therapy to Benefit Patients with Advanced Cancer. New England Journal of Medicine 1979, 301 (13), 687-690; Chen et al., Pharmacologic ascorbic acid concentrations selectively kill cancer cells: action as a pro-drug to deliver hydrogen peroxide to tissues. Proceedings of the National Academy of Sciences of the United States of America 2005, 102 (38), 13604-13609; Prasad et al., High Doses of Multiple Antioxidant Vitamins: Essential Ingredients in Improving the Efficacy of Standard Cancer Therapy. Journal of the American College of Nutrition 1999, 18 (1), 13-25). Pharmacologic doses of ascorbate (oral and/or intravenous) could increase the effectiveness of cancer chemotherapy in many solid cancer therapies (López-Lizaro, Dual role of hydrogen peroxide in cancer: Possible relevance to cancer chemoprevention and therapy. Cancer Letters 2007, 252 (1), 1-8; Li et al., New Developments and Novel Therapeutic Perspectives for Vitamin C. The Journal of Nutrition 2007, 137 (10), 2171-2184; Klimant et al., Intravenous vitamin C in the supportive care of cancer patients: a review and rational approach. Current Oncology 2018, 25 (2), 139-148. The primary objective of this experiment was to determine the cytotoxic effects of KS1 at pharmacological concentrations. Cancer cell lines were selected based on their high ROS implications. […] These cell lines have been studied extensively with ascorbic acid treatments (Schoenfeld et al., O(2)(·−) and H(2)O(2)-Mediated Disruption of Fe Metabolism Causes the Differential Susceptibility of NSCLC and GBM Cancer Cells to Pharmacological Ascorbate. Cancer Cell 2017, 31 (4), 487-500.e8; Chen et al., Modulators of Redox Metabolism in Head and Neck Cancer. Antioxidants & Redox Signaling 2017, 29 (16), 1660-1690; Khandrika et al., Oxidative stress in prostate cancer. Cancer Lett 2009, 282 (2), 125-136.

PC3 cells = test: [18F]KS1 in vitro cell uptake in PC3 cells, normoxic and hypoxic; type: cell-based, human
Method: ROS efficacy was evaluated in two tumor cell lines: (1)SCC-61 and rSCC-61 cells (HNSCC) (FIG. 5), and (2) PC3 (PCa) cell lines under normoxic and hypoxic conditions (FIG. 6) following previously published protocols by our group (Sai et al., Peptide-based PET imaging of the tumor restricted IL13RA2 biomarker. Oncotarget 2017, 5; Yamamoto et al., Correlation of 18F-FLT and 18F-FDG uptake on PET with Ki-67 immunohistochemistry in non-small cell lung cancer. European Journal of Nuclear Medicine and Molecular Imaging 2007, 34 (10), 1610-1616; Solingapuram Sai et al., Radiolabeling and initial biological evaluation of [18F]KBM-1 for imaging RAR-α receptors in neuroblastoma. Bioorganic & Medicinal Chemistry Letters 2017, 27 (6), 1425-1427). Several ROS blockers including fresh solution of non-radioactive compounds KS1, KS2, SOD (10 μM) in the cell media were added to the seeded tumor cells 1.0 h prior to radiotracer addition (n=6 per blocker). All the cells were then treated with [^18F]KS1 (2.0 μCi/well, UV mass=0.4 μg/mL and S.A=3100 mCi/μmol) and incubated for 60 min (n=6) at 37° C. All the cells (both with and without blockers) were washed and lysed with lysate buffer solution. Lysate samples from each well were collected for gamma counting.
Similarly, in another experiment, human PCa-PC3 cells were cultured under normoxic (˜21% O2) or hypoxic (1% O2) conditions for 48 h. Thereafter, similar to HNSCC cells (detailed above) all assay steps including blocker treatment, radiotracer addition, incubations, washings and lysis were carried out under normoxic or hypoxic conditions. All hypoxia experiments were performed in a hypoxia chamber (Biospherix X3 Xvivo system). Plates without radioactivity were used as controls. […] The counts per minute values of each well were normalized to the amount of radioactivity added to each well and was expressed as percent uptake relative to the control condition. The data were expressed as % ID/mg of protein present in each well.
To further test the specificity of [^18F]KS1 for ROS, radioactive uptake in PCa cells was tested under hypoxic conditions, as several studies have shown that hypoxic conditions promote ROS generation and oxidative stress (Kumar et al., Oxidative Stress Is Inherent in Prostate Cancer Cells and Is Required for Aggressive Phenotype. Cancer Research. 2008; 68:1777-85; Pinthus et al., Androgen Induces Adaptation to Oxidative Stress in Prostate Cancer: Implications for Treatment with Radiation Therapy. Neoplasia (New York, NY). 2007; 9:68-80; Cervellati et al., Hypoxia induces cell damage via oxidative stress in retinal epithelial cells. […] A reported hypoxia model of PCa cells was tested in which the uptake of [^18F]KS1 was evaluated in PC3 cells cultured under hypoxic conditions versus normoxic conditions.

| SMILES | IC50 (PC3 cell line; PC-3, Example 7, 48 h) [µM] | IC50 (PC3 cell line; PC-3, Example 13) [µM] | uptake blocked by SOD (PC3 cells; PC3 cells) [%] | uptake blocked by nonradioactive KS1 (PC3 cells; PC3 cells) [%] | uptake increase with doxorubicin (PC3 cells; PC3 cells) [%] | radioactive uptake in PC3 under hypoxic conditions versus normoxic conditions (PC3 cells; hypoxic 1% O2 vs normoxic ~21% O2, 60 min) [fold] |
| --- | --- | --- | --- | --- | --- | --- |
| O=C1O/C(=C/CCl)C(O)=C1OCc1ccc(OCCF)cc1 [KS1, (E)-5-(2-chloroethylidene)-3-(4-(2-fluoroethoxy)benzyloxy)-4-hydroxyfuran-2(5H)-one] | 311 | 1010 | – | – | – | – |
| O=C1O/C(=C/CCl)C(O)=C1OCc1ccc(OCC[18F])cc1 [[^18F]KS1] | – | – | ~48 | ~61 | ~15 | ~2 |
